Read-outs that look alike come from different tables or passages of the source.
Experiments:
in vivo = type: in vivo; conditions: mouse, in vivo, po, read-out: Acute toxicity LD50
mice [1] = experiment: Writhing test in mice (acetic acid induced writhing), analgesic activity; type: in vivo; conditions: for ED50: Mus musculus, po, 20 min, read-out: Analgesic ED50 Writhing test; for analgesic activity compared with the compounds of the present invention: statement in words, refers to the pharmacological tests of Table 1
Description: Writhing test in mice. (SPF females of the strain NMRI/BOM, weighing 20-25 g). The test substance was administered by gavage ½ hour prior to an intraperitoneal injection of acetic acid. The number of writhing movements in 20 minutes was counted.

[2] = Ulcerogenic activity in rats; conditions: rat, in vivo, po
Description: SPF males of the strain Sprague-Dawley weighing 180-250 g were used. 5 hours after administration by gavage of the test substance the rats were killed by an overdose of ether. The stomachs were removed and opened along the greater curvature. The number of ulcers was assessed and compared to control rats.

rats [3] = experiment: Test for antiinflammatory activity in rats (carrageenin paw); type: in vivo; conditions: Rattus norvegicus, po, read-out: Antiinflam-matory test ED50
Description: SPF males of the strain Sprague-Dawley, weighing ~ 150 g were used. The test was performed according to Winter et al.: Proc. Soc. […] The test substance was given by gavage 1 hour prior to injection of a carrageenin-suspension into the rat paw.

rats [4] = experiment: Randall-Selitto test in rats (analgesia-meter, brewer's yeast paw), analgesic activity; type: in vivo; conditions: Rattus norvegicus, po, read-out: Analgesic ED50 Analgesia-meter
Description: 2. Randall-Selitto test in rats. (SPF males of the strain Sprague-Dawley, weighing 90-100 g). The test was performed on the whole as described by Randall and Selitto: Arch. Int. Pharmacodyn. […] An analgesia-meter of the make Ugo Basile was used and the test substance was administered by gavage 2 hours after injection of a suspension of brewer's yeast into the rat paw.

PG-synthetase = experiment: Prostaglandin-synthetase inhibition test; type: biochemical; conditions: AA = Arachidonic acid
mice [5] = experiment: in vivo; type: in vivo; conditions: statement in words, refers to the pharmacological data of Table 1
[6] = mice, by gavage, observation period 168 hours
[7] = mice, by gavage ½ hour prior to intraperitoneal acetic acid, writhing movements in 20 minutes
[8] = rats, by gavage 1 hour prior to carrageenin injection into the paw
[9] = rats, by gavage 2 hours after brewer's yeast injection into the paw
[10] = rats, by gavage, stomachs examined 5 hours after administration, read-out: Ulcerogenic activity ED50

| SMILES | LD50 at 168 h (in vivo; [6]) | ED50 (mice [1]; [7]) | LD50 at 168 h (in vivo) | TD50 at 5 h [2] | ED50 (rats [3]; [8]) | ED50 (rats [4]; [9]) | Inhibition of PG-synthetase IC50 (PG-synthetase) | toxicity compared with the compounds of the present invention (mice [5]) | analgesic activity compared with the compounds of the present invention (mice [1]) | TD50 at 5 h [2, 10] | ED50 (rats [3]) | ED50 (rats [4]; 2 h) | ED50 (mice [1]) |
| --- | --- | --- | --- | --- | --- | --- | --- | --- | --- | --- | --- | --- | --- |
| COc1ccc(-c2nc(-c3ccc(F)cc3)n(CCC(=O)O)c2-c2ccc(OC)cc2)cc1 [Compound 1, 1-(2-Carboxyethyl)-2-(p-fluorphenyl)-4,5-bis(p-methoxyphenyl)imidazole, reference compound] | > 2000 mg/kg | > 200 mg/kg | – | – | – | – | – | – | – | – | – | – | – |
| COc1ccc(-c2nc(-c3ccccc3F)[nH]c2-c2ccc(OC)cc2)cc1 [Compound 2, 2-(o-Fluorphenyl)-4,5-bis(p-methoxyphenyl)imidazole] | – | 15 mg/kg | > 2000 mg/kg | 590 mg/kg | 130 mg/kg | 0.3 mg/kg | – | – | – | – | – | – | – |
| COc1ccc(-c2nc(-c3cccc(F)c3)[nH]c2-c2ccc(OC)cc2)cc1 [Compound 3, 2-(m-Fluorphenyl)-4,5-bis(p-methoxyphenyl)imidazole] | – | 3.2 mg/kg | > 2000 mg/kg | 870 mg/kg | 38 mg/kg | 0.25 mg/kg | – | – | – | – | – | – | – |
| COc1ccc(-c2nc(-c3ccc(F)cc3)[nH]c2-c2ccc(OC)cc2)cc1 [Compound 4, 2-(p-Fluorphenyl)-4,5-bis(p-methoxyphenyl)imidazole] | – | 5 mg/kg | 1900 mg/kg | 360 mg/kg | 14 mg/kg | 0.3 mg/kg | 0,18 µg/10 µg AA | – | – | – | – | – | – |
| COc1ccc(-c2nc(-c3cccc(F)c3F)[nH]c2-c2ccc(OC)cc2)cc1 [Compound 5, 2-(2,3-Difluorphenyl)-4,5-bis(p-methoxyphenyl) imidazole] | – | 4.6 mg/kg | > 2000 mg/kg | 800 mg/kg | 120 mg/kg | 0.55 mg/kg | 0,21 µg/10 µg AA | – | – | – | – | – | – |
| COc1ccc(-c2nc(-c3ccc(F)cc3F)[nH]c2-c2ccc(OC)cc2)cc1 [Compound 6, 2-(2,4-Difluorphenyl)-4,5-bis(p-methoxyphenyl)imidazole] | – | 4 mg/kg | > 2000 mg/kg | > 300 mg/kg | 47 mg/kg | 0.8 mg/kg | 0,27 µg/10 µg AA | – | – | – | – | – | – |
| COc1ccc(-c2nc(-c3cc(F)ccc3F)[nH]c2-c2ccc(OC)cc2)cc1 [Compound 7, 2-(2,5-Difluorphenyl)-4,5-bis(p-methoxyphenyl)imidazole] | – | 16 mg/kg | > 2000 mg/kg | 1000 mg/kg | 110 mg/kg | 0.55 mg/kg | 1,71 µg/10 µg AA | – | – | – | – | – | – |
| COc1ccc(-c2nc(-c3c(F)cccc3F)[nH]c2-c2ccc(OC)cc2)cc1 [Compound 8, 2-(2,6-Difluorphenyl)-4,5-bis(p-methoxyphenyl)imidazole] | – | 6.8 mg/kg | > 2000 mg/kg | > 300 mg/kg | 300 mg/kg | 0.55 mg/kg | 0,13 µg/10 µg AA | – | – | – | – | – | – |
| COc1ccc(-c2nc(-c3ccc(F)c(F)c3)[nH]c2-c2ccc(OC)cc2)cc1 [Compound 9, 2-(3,4-Difluorphenyl)-4,5-bis(p-methoxyphenyl)imidazole] | > 2000 mg/kg | 1.9 mg/kg | – | – | 15 mg/kg | – | – | – | – | – | – | – | – |
| COc1ccc(-c2nc(-c3cc(F)cc(F)c3)[nH]c2-c2ccc(OC)cc2)cc1 [Compound 10, 2-(3,5-Difluorphenyl)-4,5-bis(p-methoxyphenyl)imidazole] | – | 10 mg/kg | – | 780 mg/kg | 150 mg/kg | 0.45 mg/kg | – | – | – | – | – | – | – |
| COc1ccc(-c2nc(C(F)(F)F)[nH]c2-c2ccc(OC)cc2)cc1 [Compound 11, 2-Trifluormethyl-4,5-bis(p-methoxyphenyl)imidazole, reference compound] | – | 75 mg/kg | – | 450 mg/kg | 25 mg/kg | – | – | higher toxicity | weaker analgesic activity | – | – | – | – |
| COc1ccc(-c2nc(C(C)C)[nH]c2-c2ccc(OC)cc2)cc1 [Compound 12, 2-Isopropyl-4,5-bis(p-methoxyphenyl)imidazole, reference compound] | > 2000 mg/kg | 200 mg/kg | – | – | – | – | – | – | much weaker analgesic activity | – | – | – | – |
| COc1ccc2c(c1)c(CC(=O)O)c(C)n2C(=O)c1ccc(Cl)cc1 [Compound 13, Indomethacin, reference compound] | 21 mg/kg | – | – | – | – | – | 0,65 µg/10 µg AA | – | – | 9.7 mg/kg | 28 mg/kg | 0.36 mg/kg | 8 mg/kg |
| COc1ccc2cc([C@H](C)C(=O)O)ccc2c1 [Compound 14, Naproxen, reference compound] | – | – | – | – | 10 mg/kg | 1.6 mg/kg | 0,49 µg/10 µg AA | – | – | 19.5 mg/kg | – | – | – |
| CC(=O)Oc1ccccc1C(=O)O [Compound 15, Acetyl salicylic acid, reference compound] | 1700 mg/kg | – | – | – | – | – | 7,61 µg/10 µg AA | – | – | 340 mg/kg | 350 mg/kg | – | 100 mg/kg |
